Assay results: patent US6764999B2, “Nasal delivery of parasiticides” (priority 2002, dated 2004)

Assays:
[1] = serum levels of ivermectin after administration to the nasal pharynx; type: in vivo, beef steers
Method: To study the dose/response efficacy of nasal administration of macrocyclic lactone parasicides, three (3) beef steers of mixed breeding were used to evaluate three treatments. These three treatments were:
Treatments were applied and cattle were bled via jugular venipuncture at 0, 6, 24, 48, and 96 hours post-dosing.
Table I recites serum levels of ivermectin, in nanograms per milliliter, for the three treatments recited above at 0, 6, 24, 48, and 96 hours post dosing by nasal administration. Each treatment included delivering a 1 ml mixture comprising ivermectin and propylene glycol to the nasal pharnyx of the animal.

[2] = topical, 500 micrograms per kilogram body weight; cited from earlier work
[3] = injection, about 200 micrograms per kilogram of bodyweight; cited from earlier work
[4] = test system: most parasites; details: cattle; cited from earlier work
[5] = test system: Haemonchus contortus; details: cited from earlier work
[6] = test system: Trichostrongylus colubriformis; details: cited from earlier work
[7] = autoclave temperatures; cited from earlier work

ivermectin
serum level of ivermectin ([1]; Treatment 1, nasal, about 248 μg/kg in propylene glycol, 0 Hours): 0.19 nanograms per milliliter | serum level of ivermectin ([1]; Treatment 1, nasal, about 248 μg/kg in propylene glycol, 6 Hours): 5.87 nanograms per milliliter | serum level of ivermectin ([1]; Treatment 1, nasal, about 248 μg/kg in propylene glycol, 24 Hours): 15.24 nanograms per milliliter | serum level of ivermectin ([1]; Treatment 1, nasal, about 248 μg/kg in propylene glycol, 48 Hours): 11.22 nanograms per milliliter | serum level of ivermectin ([1]; Treatment 1, nasal, about 248 μg/kg in propylene glycol, 96 Hours): 7.58 nanograms per milliliter | maximum serum level CMAX(1) ([1]; Treatment 1, nasal, about 248 micrograms per kilogram body weight): about 15 nanograms of ivermectin per ml of blood | CMAX(1) ([1]; Treatment 1, nasal, about 248 micrograms per kilogram, as restated): greater than 15 ng/ml | serum level of ivermectin ([1]; Treatment 2, nasal, about 409 μg/kg in propylene glycol, 0 Hours): 0.21 nanograms per milliliter | serum level of ivermectin ([1]; Treatment 2, nasal, about 409 μg/kg in propylene glycol, 6 Hours): 6.58 nanograms per milliliter | serum level of ivermectin ([1]; Treatment 2, nasal, about 409 μg/kg in propylene glycol, 24 Hours): 24.48 nanograms per milliliter | serum level of ivermectin ([1]; Treatment 2, nasal, about 409 μg/kg in propylene glycol, 48 Hours): 19.71 nanograms per milliliter | serum level of ivermectin ([1]; Treatment 2, nasal, about 409 μg/kg in propylene glycol, 96 Hours): 13.88 nanograms per milliliter | maximum serum level CMAX(2) ([1]; Treatment 2, nasal, about 409 micrograms per kilogram body weight): about 24 nanograms of ivermectin per ml of blood | serum level of ivermectin ([1]; Treatment 3, nasal, about 872 μg/kg in propylene glycol, 0 Hours): 0.22 nanograms per milliliter | serum level of ivermectin ([1]; Treatment 3, nasal, about 872 μg/kg in propylene glycol, 6 Hours): 22.51 nanograms per milliliter | serum level of ivermectin ([1]; Treatment 3, nasal, about 872 μg/kg in propylene glycol, 24 Hours): 40.79 nanograms per milliliter | serum level of ivermectin ([1]; Treatment 3, nasal, about 872 μg/kg in propylene glycol, 48 Hours): 30.53 nanograms per milliliter | serum level of ivermectin ([1]; Treatment 3, nasal, about 872 μg/kg in propylene glycol, 96 Hours): 19.38 nanograms per milliliter | maximum serum level CMAX(3) ([1]; Treatment 3, nasal, about 872 micrograms per kilogram body weight): about 41 nanograms of ivermectin per ml of blood | time for which serum levels of ivermectin exceed 2 ng ml^−1 ([1]; all three treatments, nasal): > 96 h | CMAX [2]: 12.2 ng/mL | CMAX serum level [3]: about 30 ng/ml | serum level sufficient to protect the animal against reinfestation of most parasites [4]: > 2 ng/mL | inhibition of pharyngeal pumping compared with motility [5]: more potent inhibition of pharyngeal pumping than motility | inhibition of pharyngeal pumping compared with motility [6]: more potent inhibition of pharyngeal pumping than motility | thermal stability [7]: subject to decomposition at autoclave temperatures
